Measured values as given in the NIST ThermoML archive (doi:10.1016/j.jct.2013.04.013).
Numbers after ± are expanded uncertainties.

Columns and labels:
[1] = 101.33 kPa, Liquid; for thermal conductivity: Hot wire method; for viscosity: Cone and plate viscometry
[2] = molar heat capacity at constant pressure; settings: 101.33 kPa, Liquid, Small sample (50 mg) DSC

Q: Which results are given for CCCCCCCCCCCCCC[P+](CCCCCC)(CCCCCC)CCCCCC.O=S(=O)([N-]S(=O)(=O)C(F)(F)F)C(F)(F)F?
A: thermal conductivity ([1]; 285.65 K): 0.139 ± 0.02 W/m/K; thermal conductivity ([1]; 293.14 K): 0.138 ± 0.02 W/m/K; thermal conductivity ([1]; 297.72 K): 0.137 ± 0.02 W/m/K; thermal conductivity ([1]; 302.37 K): 0.137 ± 0.02 W/m/K; thermal conductivity ([1]; 313.04 K): 0.135 ± 0.02 W/m/K; thermal conductivity ([1]; 323.58 K): 0.134 ± 0.02 W/m/K; thermal conductivity ([1]; 333.55 K): 0.135 ± 0.02 W/m/K; molar heat capacity at constant pressure ([2]; 333.15 K): 1367.6 ± 58 J/K/mol; molar heat capacity at constant pressure ([2]; 338.15 K): 1372.2 ± 58 J/K/mol; molar heat capacity at constant pressure ([2]; 343.15 K): 1378.3 ± 59 J/K/mol; molar heat capacity at constant pressure ([2]; 348.15 K): 1386.7 ± 59 J/K/mol; molar heat capacity at constant pressure ([2]; 353.15 K): 1395.1 ± 59 J/K/mol; molar heat capacity at constant pressure ([2]; 358.15 K): 1403.5 ± 60 J/K/mol; molar heat capacity at constant pressure ([2]; 363.15 K): 1413.4 ± 60 J/K/mol; molar heat capacity at constant pressure ([2]; 368.15 K): 1426.4 ± 60 J/K/mol; molar heat capacity at constant pressure ([2]; 373.15 K): 1435.6 ± 61 J/K/mol; molar heat capacity at constant pressure ([2]; 378.15 K): 1440.9 ± 61 J/K/mol; molar heat capacity at constant pressure ([2]; 383.15 K): 1450.1 ± 62 J/K/mol; molar heat capacity at constant pressure ([2]; 388.15 K): 1457.7 ± 62 J/K/mol; molar heat capacity at constant pressure ([2]; 393.15 K): 1465.4 ± 62 J/K/mol; molar heat capacity at constant pressure ([2]; 398.15 K): 1473.8 ± 63 J/K/mol; molar heat capacity at constant pressure ([2]; 403.15 K): 1480.6 ± 63 J/K/mol; molar heat capacity at constant pressure ([2]; 408.15 K): 1488.3 ± 63 J/K/mol; molar heat capacity at constant pressure ([2]; 413.15 K): 1495.9 ± 63 J/K/mol; molar heat capacity at constant pressure ([2]; 418.15 K): 1502.8 ± 63 J/K/mol; molar heat capacity at constant pressure ([2]; 423.15 K): 1509.7 ± 64 J/K/mol; molar heat capacity at constant pressure ([2]; 428.15 K): 1517.3 ± 64 J/K/mol; molar heat capacity at constant pressure ([2]; 438.15 K): 1533.4 ± 65 J/K/mol; molar heat capacity at constant pressure ([2]; 443.15 K): 1536.4 ± 65 J/K/mol; molar heat capacity at constant pressure ([2]; 448.15 K): 1542.5 ± 66 J/K/mol; molar heat capacity at constant pressure ([2]; 453.15 K): 1550.2 ± 66 J/K/mol; molar heat capacity at constant pressure ([2]; 458.15 K): 1556.3 ± 66 J/K/mol; molar heat capacity at constant pressure ([2]; 463.15 K): 1560.9 ± 66 J/K/mol

Q: With CCCC[P+](C)(CCCC)CCCC.COS(=O)(=O)[O-] [tributylmethylphosphonium methyl sulfate] as the molecule, how does the thermal conductivity ([1]; 283.34 K) read?
A: The thermal conductivity was 0.157 ± 0.02 W/m/K.

Q: And the thermal conductivity ([1]; 293.28 K)?
A: Its thermal conductivity is 0.156 ± 0.02 W/m/K.

Q: And the thermal conductivity ([1]; 298.36 K)?
A: The thermal conductivity was 0.155 ± 0.02 W/m/K.

Q: What about the thermal conductivity ([1]; 303.45 K) of the same molecule?
A: The thermal conductivity was 0.155 ± 0.02 W/m/K.

Q: What about the thermal conductivity ([1]; 313.5 K) of the same molecule?
A: The thermal conductivity was 0.153 ± 0.02 W/m/K.

Q: What about the thermal conductivity ([1]; 323.6 K) of the same molecule?
A: The thermal conductivity was 0.153 ± 0.02 W/m/K.

Q: What about the thermal conductivity ([1]; 333.58 K) of the same molecule?
A: The thermal conductivity was 0.153 ± 0.02 W/m/K.

Q: What about the thermal conductivity ([1]; 343.61 K) of the same molecule?
A: Its thermal conductivity is 0.153 ± 0.02 W/m/K.

Q: What about the thermal conductivity ([1]; 353.51 K) of the same molecule?
A: Its thermal conductivity is 0.153 ± 0.02 W/m/K.

Q: What does the source list for CCCCCCCCCCCCCC[P+](CCCCCC)(CCCCCC)CCCCCC.FC(F)(F)C(F)(F)[P-](F)(F)(F)(C(F)(F)C(F)(F)F)C(F)(F)C(F)(F)F?
A: thermal conductivity ([1]; 282.19 K): 0.126 ± 0.02 W/m/K; thermal conductivity ([1]; 292.99 K): 0.125 ± 0.02 W/m/K; thermal conductivity ([1]; 298.41 K): 0.125 ± 0.02 W/m/K; thermal conductivity ([1]; 303.54 K): 0.125 ± 0.02 W/m/K; thermal conductivity ([1]; 314.37 K): 0.123 ± 0.02 W/m/K; thermal conductivity ([1]; 325.65 K): 0.123 ± 0.02 W/m/K; thermal conductivity ([1]; 334.58 K): 0.123 ± 0.02 W/m/K; thermal conductivity ([1]; 344.18 K): 0.123 ± 0.02 W/m/K; thermal conductivity ([1]; 355.07 K): 0.121 ± 0.02 W/m/K

Q: What does the source list for CC(CC(C)(C)C)CP(=O)([O-])CC(C)CC(C)(C)C.CCCCCCCCCCCCCC[P+](CCCCCC)(CCCCCC)CCCCCC?
A: thermal conductivity ([1]; 282.47 K): 0.137 ± 0.02 W/m/K; thermal conductivity ([1]; 292.94 K): 0.136 ± 0.02 W/m/K; thermal conductivity ([1]; 298.04 K): 0.135 ± 0.02 W/m/K; viscosity ([1]; 298.15 K): 847.3 mPa·s; thermal conductivity ([1]; 303.15 K): 0.135 ± 0.02 W/m/K; viscosity ([1]; 313.15 K): 568.54 mPa·s; thermal conductivity ([1]; 313.45 K): 0.133 ± 0.02 W/m/K; viscosity ([1]; 323.15 K): 387.46 mPa·s; thermal conductivity ([1]; 323.45 K): 0.132 ± 0.02 W/m/K; viscosity ([1]; 333.15 K): 125.61 mPa·s; thermal conductivity ([1]; 333.55 K): 0.131 ± 0.02 W/m/K; thermal conductivity ([1]; 343.59 K): 0.131 ± 0.02 W/m/K; thermal conductivity ([1]; 353.62 K): 0.131 ± 0.02 W/m/K; molar heat capacity at constant pressure ([2]; 293.15 K): 1619.2 ± 69 J/K/mol; molar heat capacity at constant pressure ([2]; 298.15 K): 1634.7 ± 70 J/K/mol; molar heat capacity at constant pressure ([2]; 303.15 K): 1644.7 ± 70 J/K/mol; molar heat capacity at constant pressure ([2]; 308.15 K): 1655.6 ± 70 J/K/mol; molar heat capacity at constant pressure ([2]; 313.15 K): 1667.2 ± 70 J/K/mol; molar heat capacity at constant pressure ([2]; 318.15 K): 1678 ± 71 J/K/mol; molar heat capacity at constant pressure ([2]; 323.15 K): 1688 ± 72 J/K/mol; molar heat capacity at constant pressure ([2]; 328.15 K): 1698.1 ± 72 J/K/mol; molar heat capacity at constant pressure ([2]; 333.15 K): 1708.2 ± 73 J/K/mol; molar heat capacity at constant pressure ([2]; 338.15 K): 1717.4 ± 73 J/K/mol; molar heat capacity at constant pressure ([2]; 343.15 K): 1725.9 ± 73 J/K/mol; molar heat capacity at constant pressure ([2]; 348.15 K): 1736 ± 73 J/K/mol; molar heat capacity at constant pressure ([2]; 353.15 K): 1745.3 ± 74 J/K/mol; molar heat capacity at constant pressure ([2]; 358.15 K): 1754.5 ± 74 J/K/mol; molar heat capacity at constant pressure ([2]; 363.15 K): 1763.8 ± 75 J/K/mol
